The values that follow come from patent US20240254118A1, “PRMT5 INHIBITORS AND USES THEREOF” (Gilead Sciences, Inc., priority 2022, published 2024).

Assay [1] concerns HCT116 MTAP-deleted cells. The experiment in a line: Cell viability assay (CellTiter-Glo, 7 days), HCT116 MTAP-deleted. The following applies: Homo sapiens, HCT-116, 168 h.
Assay [2] deals with SDMA signal (PRMT5 inhibition) in HCT116 MTAP-deleted cells. The assay can be described thus: Symmetric di-methyl arginine image-based high content screen assay (SDMA assay), HCT116 MTAP-deleted. The settings on record: SDMA assay; for EC50: Homo sapiens, HCT-116, 72 h, 3 days of treatment, cell line not given, taken as HCT116 MTAP-deleted, read-out: EC50 (SDMA assay). It counts as cell-based. An outline of the steps: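 Read-out: per-cell mean SDMA immunofluorescence (Alexa Fluor 488 secondary), cells segmented by DAPI on a high-content imager. Compound exposure in HCT116 MTAP-deleted cells lasted until fixation on Day 3; overnight 4° C primary anti-SDMA antibody staining.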

[3] abbreviates: taken as HCT116 WT versus MTAP-deleted.

SMILES strings stand for the structures.

Regarding `CC(=O)N(C)N(Cc1ccc(C(F)(F)F)cn1)C(=O)c1ccc2nc(N)c3cnn(C)c3c2c1` [Example 33, N′-acetyl-4-amino-N′, 1-dimethyl-N-[[5-(trifluoromethyl)-2-pyridyl]methyl]pyrazolo[4,3-c]quinoline-8-carbohydrazide], in assay [1], the CC50 was < 100 nM. Also, in assay [2], the EC50 was < 1 nM. Besides, in assay [2] (setting [3]), the “EC50 selectivity (SDMA assay)” value is 73.
Take `CN(C(=O)C1CC1)N(Cc1ccc(-c2cnn(C(F)(F)F)c2)cc1Cl)C(=O)c1ccc2nc(N)c3cnn(C)c3c2c1` [Example 376, 4-amino-N-[[2-chloro-4-[1-(trifluoromethyl)pyrazol-4-yl]phenyl]methyl]-N′-(cyclopropanecarbonyl)-N′,1-dimethyl-pyrazolo[4,3-c]quinoline-8-carbohydrazide]: the CC50 in assay [1] was < 100 nM. The half-maximal effective concentration (EC50) in assay [2] is 1 to 5 nM. Also, in assay [2] (setting [3]), the “EC50 selectivity (SDMA assay)” value turned out to be 164.
`Cn1ncc2c(N)nc3ccc(C(=O)N(Cc4ccc(C(F)(F)F)cn4)N4C[C@@H]5C[C@H]4CO5)cc3c21` [Example 297, 4-amino-N-((1S,4S)-2-oxa-5-azabicyclo[2.2.1]heptan-5-yl)-1-methyl-N-((5-(trifluoromethyl)pyridin-2-yl)methyl)-1H-pyrazolo[4,3-c]quinoline-8-carboxamide] returned a CC50 in assay [1] of 100 to 1000 nM. Also, the EC50 in assay [2] lay in the range of 1 to 5 nM. Further, the “EC50 selectivity (SDMA assay)” value in assay [2] (setting [3]) is 151.
As for `Cn1ncc2c(N)nc3cc(F)c(C(=O)N(Cc4ccccn4)N4CCCC4=O)cc3c21` [Example 53, 4-amino-7-fluoro-1-methyl-N-(2-oxopyrrolidin-1-yl)-N-(pyridin-2-ylmethyl)-1H-pyrazolo[4,3-c]quinoline-8-carboxamide], the CC50 in assay [1] was 100 to 1000 nM. In addition, the EC50 in assay [2] is 1 to 5 nM. Besides, the “EC50 selectivity (SDMA assay)” value in assay [2] (setting [3]) came out at 338.
On the same counts, the results for `Nc1nc2ccc(C(=O)N(Cc3ccc(C(F)(F)F)cn3)N3CCCCC3=O)cc2c2[nH]ncc12` [Example 202, 4-amino-N-(2-oxo-1-piperidyl)-N-[[5-(trifluoromethyl)-2-pyridyl]methyl]-1H-pyrazolo[4,3-c]quinoline-8-carboxamide] are < 100 nM, 1 to 5 nM and 10.
Consider `COC(C)(C)C(=O)N(C)N(Cc1ccc(C(F)(F)F)cn1)C(=O)c1ccc2nc(N)c3cnn(C)c3c2c1` [Example 201, 4-amino-N′-(2-methoxy-2-methyl-propanoyl)-N′,1-dimethyl-N-[[5-(trifluoromethyl)-2-pyridyl]methyl]pyrazolo[4,3-c]quinoline-8-carbohydrazide], for which the CC50 in assay [1] was < 100 nM. The EC50 in assay [2] was in the range of 1 to 5 nM. Also, the “EC50 selectivity (SDMA assay)” value in assay [2] (setting [3]) was 423.
On the same counts, the results for `[2H]C([2H])(c1ccc(C(F)(F)F)cn1)N(C(=O)c1ccc2nc(N)c3cnn(C)c3c2c1)N(C)C(=O)C1CC1` [Example 256, 4-amino-N′-(cyclopropanecarbonyl)-N′,1-dimethyl-N-((5-(trifluoromethyl)pyridin-2-yl)methyl-d2)-1H-pyrazolo[4,3-c]quinoline-8-carbohydrazide] are < 100 nM, < 1 nM and 130.
On to `Cn1ncc2c(N)nc3ccc(C(=O)N(Cc4ccc(C(F)(F)F)cn4)NC(=O)OC4CCC4)cc3c21` [Example 330, cyclobutyl 2-(4-amino-1-methyl-1H-pyrazolo[4,3-c]quinoline-8-carbonyl)-2-((5-(trifluoromethyl)pyridin-2-yl)methyl)hydrazine-1-carboxylate], for which the CC50 in assay [1] is < 100 nM. The EC50 in assay [2] was < 1 nM. Besides, in assay [2] (setting [3]), the “EC50 selectivity (SDMA assay)” value stood at 225.
As for `CN(C(=O)OCC(F)(F)F)N(Cc1ccc(C(F)(F)F)cn1)C(=O)c1ccc2nc(N)c3cnn(C)c3c2c1` [Example 109, 2,2,2-trifluoroethyl N-[(4-amino-1-methyl-pyrazolo[4,3-c]quinoline-8-carbonyl)-[[5-(trifluoromethyl)-2-pyridyl]methyl]amino]-N-methyl-carbamate], the CC50 in assay [1] was < 100 nM. The EC50 in assay [2] was < 1 nM. The “EC50 selectivity (SDMA assay)” value in assay [2] (setting [3]) is given as 12.
Regarding `CN(C(=O)C1CC1)N(Cc1ccc(-c2cnn(C(F)(F)F)c2)cc1)C(=O)c1ccc2nc(N)c3cnn(C)c3c2c1` [Example 374, 4-amino-N′-(cyclopropanecarbonyl)-N′,1-dimethyl-N-[[4-[1-(trifluoromethyl)pyrazol-4-yl]phenyl]methyl]pyrazolo[4,3-c]quinoline-8-carbohydrazide], in assay [1], the CC50 was < 100 nM. Also, the EC50 in assay [2] was 1 to 5 nM. The “EC50 selectivity (SDMA assay)” value in assay [2] (setting [3]) worked out at 125.
`Cn1ncc2c(N)nc3ccc(C(=O)N(NC(=O)C4CC4)C4COc5cc(C(F)(F)F)ccc54)cc3c21` (stereo not drawn) [Example 349, 4-amino-N′-(cyclopropanecarbonyl)-1-methyl-N-(6-(trifluoromethyl)-2,3-dihydrobenzofuran-3-yl)-1H-pyrazolo[4,3-c]quinoline-8-carbohydrazide]: the half-maximal cytotoxic concentration (CC50) in assay [1] was < 100 nM. In addition, the EC50 in assay [2] is < 1 nM. The “EC50 selectivity (SDMA assay)” value in assay [2] (setting [3]) is 13.
`Cn1ncc2c(N)nc3ccc(C(=O)N(Cc4ccc(C(F)(F)F)cn4)N4CC5(CC5)OC4=O)cc3c21` [Example 190, 4-amino-1-methyl-N-(5-oxo-4-oxa-6-azaspiro[2.4]heptan-6-yl)-N-[[5-(trifluoromethyl)-2-pyridyl]methyl]pyrazolo[4,3-c]quinoline-8-carboxamide]: the CC50 in assay [1] was < 100 nM. The half-maximal effective concentration (EC50) in assay [2] was < 1 nM. Moreover, the “EC50 selectivity (SDMA assay)” value in assay [2] (setting [3]) is listed as 144.
Consider `[2H]C([2H])([2H])N(C(C)=O)N(Cc1ccc(C(F)(F)F)cc1F)C(=O)c1ccc2nc(N)c3cnn(C([2H])([2H])[2H])c3c2c1` [Example 266, N′-acetyl-4-amino-N-(2-fluoro-4-(trifluoromethyl)benzyl)-N′,1-bis(methyl-d3)-1H-pyrazolo[4,3-c]quinoline-8-carbohydrazide], for which the CC50 in assay [1] was < 100 nM. Further, in assay [2], the EC50 was < 1 nM. Besides, in assay [2] (setting [3]), the “EC50 selectivity (SDMA assay)” value was 63.
`CCC(=O)N(C)N(Cc1ccc(C(F)(F)F)cn1)C(=O)c1cc2c(cc1F)nc(N)c1cnn(C)c12` [Example 42, 4-amino-7-fluoro-N′, 1-dimethyl-N′-propanoyl-N-[[5-(trifluoromethyl)-2-pyridyl]methyl]pyrazolo[4,3-c]quinoline-8-carbohydrazide]: in assay [1], the CC50 is < 100 nM. Moreover, the EC50 in assay [2] is < 1 nM. For the same molecule, the “EC50 selectivity (SDMA assay)” value in assay [2] (setting [3]) is reported as 14.
In the case of `Cn1ncc2c(N)nc3ccc(C(=O)N(Cc4ccc(C(F)(F)F)cn4)N4CCS(=O)(=O)CC4)cc3c21` [Example 138, 4-amino-N-(1,1-dioxo-1,4-thiazinan-4-yl)-1-methyl-N-[[5-(trifluoromethyl)-2-pyridyl]methyl]pyrazolo[4,3-c]quinoline-8-carboxamide], the CC50 in assay [1] is > 1000 nM. In assay [2], the EC50 was > 5 nM. Besides, the “EC50 selectivity (SDMA assay)” value in assay [2] (setting [3]) was found to be 174.
`CN(C(=O)C(F)F)N(Cc1ccc(C(F)(F)F)cn1)C(=O)c1ccc2nc(N)c3cnn(C)c3c2c1` [Example 195, 4-amino-N′-(2,2-difluoroacetyl)-N′,1-dimethyl-N-[[5-(trifluoromethyl)-2-pyridyl]methyl]pyrazolo[4,3-c]quinoline-8-carbohydrazide]: the CC50 in assay [1] is < 100 nM. In assay [2], the EC50 was < 1 nM. The “EC50 selectivity (SDMA assay)” value in assay [2] (setting [3]) was 146.
Consider `COCCN(C)N(Cc1ccc(C(F)(F)F)cn1)C(=O)c1ccc2nc(N)c3cnn(C)c3c2c1` [Example 179, 4-amino-N′-(2-methoxyethyl)-N′,1-dimethyl-N-((5-(trifluoromethyl)pyridin-2-yl)methyl)-1H-pyrazolo[4,3-c]quinoline-8-carbohydrazide], for which, in assay [1], the CC50 was < 100 nM. Besides, the EC50 in assay [2] was < 1 nM. For the same molecule, in assay [2] (setting [3]), the “EC50 selectivity (SDMA assay)” value is reported as 318.
Regarding `CN(C(=O)OC1CCC1)N(Cc1ccc(C(F)(F)F)cn1)C(=O)c1ccc2nc(N)c3cnn(C)c3c2c1` [Example 112, cyclobutyl N-[(4-amino-1-methyl-pyrazolo[4,3-c]quinoline-8-carbonyl)-[[5-(trifluoromethyl)-2-pyridyl]methyl]amino]-N-methyl-carbamate], the CC50 in assay [1] was < 100 nM. Also, in assay [2], the EC50 was < 1 nM. In addition, the “EC50 selectivity (SDMA assay)” value in assay [2] (setting [3]) amounted to 46.
With `Cn1ncc2c(N)nc3cc(F)c(C(=O)N(Cc4ccc(C(F)(F)F)cn4)N4CCCCC4=O)cc3c21` [Example 149, 4-amino-7-fluoro-1-methyl-N-(2-oxopiperidin-1-yl)-N-((5-(trifluoromethyl)pyridin-2-yl)methyl)-1H-pyrazolo[4,3-c]quinoline-8-carboxamide], in assay [1], the CC50 is < 100 nM. In addition, the EC50 in assay [2] is 1 to 5 nM. Further, in assay [2] (setting [3]), the “EC50 selectivity (SDMA assay)” value was determined as 18.
As for `CN(C(=O)c1ncco1)N(Cc1ccc(C(F)(F)F)cn1)C(=O)c1ccc2nc(N)c3cnn(C)c3c2c1` [Example 100, N′-(4-amino-1-methyl-1H-pyrazolo[4,3-c]quinoline-8-carbonyl)-N-methyl-N′-((5-(trifluoromethyl)pyridin-2-yl)methyl)oxazole-2-carbohydrazide], the CC50 in assay [1] is < 100 nM. Further, the EC50 in assay [2] is < 1 nM. In assay [2] (setting [3]), the “EC50 selectivity (SDMA assay)” value is 7.
On to `CC(NN(Cc1ccc(C(F)(F)F)cn1)C(=O)c1ccc2nc(N)c3cnn(C)c3c2c1)C(F)(F)F` (stereo not drawn) [Example 405, 4-amino-1-methyl-N-((5-(trifluoromethyl)pyridin-2-yl)methyl)-N′-(1,1,1-trifluoropropan-2-yl)-1H-pyrazolo[4,3-c]quinoline-8-carbohydrazide], for which the CC50 in assay [1] is < 100 nM. For the same molecule, the EC50 in assay [2] was < 1 nM. In assay [2] (taken as HCT116 WT vs MTAP-deleted), the “EC50 selectivity (SDMA assay)” value turned out to be 154.

Usually CC50 stands for the concentration that lowers cell viability or growth by half. Higher therefore signals better tolerance by the cells. For orientation: EC50 means the concentration at which the effect is half-maximal.
